Converted amounts (≈) assume the structure as drawn.
Assays:
[1] = Antioxidant activity, ORAC (Oxygen Radical Absorbance Capacity) test; type: biochemical
Description: Antioxidant activity was measured using the ORAC (Oxygen Radical Absorbance Capacity) test.
The test was based on measuring the inhibition induced by an antioxidant on the loss of activity of a fluorescent indicator, in the presence of oxidants.
In practice, given a fluorescent indicator (fluorescein) which loses its fluorescence due to the action of an oxidising agent (AAPH), antioxidant activity was evaluated in terms of maintenance of the fluorescence of the indicator over time, due to the ability of the antioxidant to counteract the action of the oxidising agent.
Antioxidant activity was assessed by spectrofluorometric assay, measuring the decay of the fluorescence of the indicator over time (from 0 to 360 minutes). A measuring the fluorescence of the sodium fluorescein indicator was performed using a spectrofluorimeter at a wavelength of 515 nm.
Antioxidant activity is expressed as the antioxidant power in relation to Trolox® at the same concentration of the samples.

[2] = Solubility in buffered water at pH=7 after 24 hours (equilibrium); details: pH 7, aqueous buffer, thermodynamic from solid
Description: An excess of powder is added to buffered water at pH=7 until a precipitate is obtained.

[3] = background statement; cited from earlier work

`CC1=C(/C=C/C(C)=C/C=C/C(C)=C/C=C/C=C(C)/C=C/C=C(C)/C=C/C2=C(C)C(=O)[C@@H](O)CC2(C)C)C(C)(C)C[C@H](O)C1=O` [ASTAXANTIN (alone), astaxantin] gave a Rel. antiox. activity ([1]; astaxantin alone at equal concentration = 1) of 1.
For `O=c1c(-c2ccc(O)cc2)coc2cc(O)cc(O)c12` [GENISTEIN (alone), genistein], the Rel. antiox. activity ([1]; genistein alone at equal concentration = 1) was 1 and the solubility at 24 h [2] was 10 µg/mL (≈ 37 µM).
Work on `O=C(O)CCCCC1CCSS1` (stereo not drawn) [LIPOIC ACID (alone), lipoic acid] yielded a Rel. antiox. activity ([1]; lipoic acid alone at equal concentration = 1) of 1.
Compound `CC(C)=CCC/C(C)=C/C=C/C(C)=C/C=C/C(C)=C/C=C/C=C(C)/C=C/C=C(C)/C=C/C=C(\C)CCC=C(C)C` [LYCOPENE (alone), lycopene] has a Rel. antiox. activity ([1]; lycopene alone at equal concentration = 1) of 1.
With `Oc1ccc(C=Cc2cc(O)cc(O)c2)cc1` [RESVERATROL (alone), resveratrol] the solubility at 24 h ([2]; buffered water) was 150 µg/mL (≈ 657 µM).
For `COC1=C(OC)C(=O)C(C/C=C(\C)CC/C=C(\C)CC/C=C(\C)CC/C=C(\C)CC/C=C(\C)CC/C=C(\C)CC/C=C(\C)CC/C=C(\C)CC/C=C(\C)CCC=C(C)C)=C(C)C1=O` [UBIDECARENONE (alone), ubidecarenone], the Relative antiox. activity ([1]; ubidecarenone alone at equal concentration = 1) is given as 1, the solubility at 24 h ([2]; buffered water) is given as 2 µg/mL (≈ 2.32 µM) and the “solubility in water or in aqueous environments” value [3] is given as less than 100 µg/mL.
